The test system of one assay is HCV replicon genotype 1a. Kind of assay: HCV replicon assay, genotype 1a (cell ELISA for NS3/4A). Type of assay: cell-based. The following applies: Hepatitis C virus, 96 h, read-out: 1a IC50 (nM). As to the method: (§1) Measurement of inhibition by compounds was performed using the HCV replicon system. Several different replicons encoding different HCV genotypes or mutations were used. In addition, potency measurements were made using different formats of the replicon assay, including different ways of measurements and different plating formats. See Jan M. Vrolijk et al., A replicons-based bioassay for the measurement of interferons in patients with chronic hepatitis C, 110 J. Virological Methods 201 (2003); Steven S. Carroll et al., Inhibition of Hepatitis C Virus RNA Replication by 2′-Modified Nucleoside Analogs, 278(14) J. Biological Chemistry 11979 (2003). However, the underlying principles are common to all of these determinations, and are outlined below.
(§2) Stable neomycin phosphotransferase encoding replicons-harboring cell lines were used, so all cell lines were maintained under G418 selection prior to the assay. Potency was determined using a cell ELISA assay with an antibody to the replicons encoded NS3/4a protease. See Caterina Trozzi et al., In Vitro Selection and Characterization of Hepatitis C Virus Serine Protease Variants Resistant to an Active-Site Peptide Inhibitor, 77(6) J. Virol. 3669 (2003). To initiate an assay, replicon cells were plated in the presence of a dilution series of test compound in the absence of G418. Typically, the assays were performed in a 96-well plate formate for manual operation, or a 384-well plate format for automated assay. Replicon cells and compound were incubated for 96 hours. At the end of the assay, cells were washed free of media and compound, and the cells were then lysed. RNA was quantified indirectly through detection of replicon-encoded NS3/4A protein levels, through an ELISA-based assay with an antibody specific for NS3/4A. IC50 determinations were calculated as a percentage of a DMSO control by fitting the data to a four-parameter fit function and the data obtained is provided in the table below.
(§3) Data for selected compounds of the present invention was obtained for genotypes 1a and 1b using this method and is provided in the table below: […]

For the next assay, the system named is HCV replicon genotype 1b. Kind of assay: HCV replicon assay, genotype 1b (cell ELISA for NS3/4A). Type of assay: cell-based. The following applies: Hepatitis C virus, 96 h, read-out: 1b IC50 (nM). As to the method:
as §1, §2, §3
Background: Replicon systems follow genome replication, usually without infectious particles.

Each structure is given as a SMILES string.

For orientation: IC50 means the concentration at which inhibition is half-maximal.

Regarding `CNC(=O)c1c(-c2ccc(F)cc2)oc2cc(N(C)S(C)(=O)=O)c(-c3cc(-c4cc5c(F)cccc5[nH]4)nn(C)c3=O)cc12` [Compound 19, 5-(6-(4-fluoro-1H-indol-2-yl)-2-methyl-3-oxo-2,3-dihydropyridazin-4-yl)-2-(4-fluorophenyl)-N-methyl-6-(N-methylmethylsulfonamido)benzofuran-3-carboxamide], the figures for the IC50 in the assay with HCV replicon genotype 1a and in the assay with HCV replicon genotype 1b were 2.48 nM and 3.07 nM, respectively.

Regarding `CNC(=O)c1c(-c2ccc(F)cc2)oc2cc(N(C)S(C)(=O)=O)c(-c3cn(C)c(=O)c(-c4cc5c(F)cccc5[nH]4)n3)cc12` [Compound 20, 5-(6-(4-fluoro-1H-indol-2-yl)-4-methyl-5-oxo-4,5-dihydropyrazin-2-yl)-2-(4-fluorophenyl)-N-methyl-6-(N-methylmethylsulfonamido)benzofuran-3-carboxamide], the IC50 in the assay on HCV replicon genotype 1a stood at 2.9 nM; in the assay on HCV replicon genotype 1b, 5.91 nM.

Consider `CNC(=O)c1c(-c2ccc(F)cc2)oc2cc(N(C)S(C)(=O)=O)c(-c3cn(C)c(=O)c(-c4cc5c(F)cccc5n4C)n3)cc12` [Compound 21, 5-(6-(4-fluoro-1-methyl-1H-indol-2-yl)-4-methyl-5-oxo-4,5-dihydropyrazin-2-yl)-2-(4-fluorophenyl)-N-methyl-6-(N-methylmethylsulfonamido)benzofuran-3-carboxamide], for which the IC50 with HCV replicon genotype 1a came out at 13.7 nM; in the assay on HCV replicon genotype 1b, 5.99 nM.

As to `CNC(=O)c1c(-c2ccc(F)cc2)oc2ccc(-n3cc(C(=O)N[C@H](CO)c4ccc(F)cc4)ncc3=O)cc12` [Compound 22, (S)-N-(1-(4-fluorophenyl)-2-hydroxyethyl)-4-(2-(4-fluorophenyl)-3-(methylcarbamoyl)benzofuran-5-yl)-5-oxo-4,5-dihydropyrazine-2-carboxamide], the IC50 stood at 354 nM with HCV replicon genotype 1a and 193 nM with HCV replicon genotype 1b.

Regarding `CNC(=O)c1c(-c2ccc(F)cc2)oc2ccc(-n3cc(C(=O)NCc4ccc(F)cn4)ncc3=O)cc12` [Compound 23, 4-(2-(4-fluorophenyl)-3-(methylcarbamoyl)benzofuran-5-yl)-N-((5-fluoropyridin-2-yl)methyl)-5-oxo-4,5-dihydropyrazine-2-carboxamide], the IC50 in the assay on HCV replicon genotype 1a was 492 nM; in the assay with HCV replicon genotype 1b, 213 nM.

In the case of `CNC(=O)c1c(-c2ccc(F)cc2)oc2ccc(-n3cc(C(=O)NC4(c5ccc(F)cc5)CC4)ncc3=O)cc12` [Compound 24, 4-(2-(4-fluorophenyl)-3-(methylcarbamoyl)benzofuran-5-yl)-N-(1-(4-fluorophenyl)cyclopropyl)-5-oxo-4,5-dihydropyrdzine-2-carboxamide], the IC50 stood at 80.8 nM in the assay with HCV replicon genotype 1a and 35.5 nM in the assay on HCV replicon genotype 1b.

On to `CNC(=O)c1c(-c2ccc(F)cc2)oc2ccc(-n3cc(C(=O)NC4(c5ccc6cnccc6n5)CC4)ncc3=O)cc12` [Compound 25, N-(1-(1,6-naphthyridin-2-yl)cyclopropyl)-4-(2-(4-fluorophenyl)-3-(methylcarbamoyl)benzofuran-5-yl)-5-oxo-4,5-dihydropyrazine-2-carboxamide], for which the IC50 stood at 72.5 nM in the assay on HCV replicon genotype 1a and 38.3 nM in the assay with HCV replicon genotype 1b.

With `CNC(=O)c1c(-c2ccc(F)cc2)oc2ccc(-n3cc(C(=O)NC4(c5ccccc5)CC4)ncc3=O)cc12` [Compound 26, 4-(2-(4-fluorophenyl)-3-(methylcarbamoyl)benzofuran-5-yl)-5-oxo-N-(1-phenylcyclopropyl)-4,5-dihydropyrazine-2-carboxamide], the IC50 in the assay with HCV replicon genotype 1a amounted to 129 nM; in the assay on HCV replicon genotype 1b, 29.7 nM.

Turning to `CNC(=O)c1c(-c2ccc(F)cc2)oc2cc(N(C)S(C)(=O)=O)c(-c3cc(C(=O)N[C@H](C)c4ccc(F)cc4)c(=O)n(C)c3)cc12` [Compound 27, (R)-5-(2-(4-fluorophenyl)-3-(methylcarbamoyl)-6-(N-methylmethylsulfonamido)benzoturan-5-yl)-N-(1-(4-fluorophenyl)ethyl)-1-methyl-2-oxo-1,2-dihydropyridine-3-carboxamide], the IC50 in the assay with HCV replicon genotype 1a is 6.87 nM; in the assay with HCV replicon genotype 1b, 4.47 nM.

Turning to `CNC(=O)c1c(-c2ccc(F)cc2)oc2cc(N(C)S(C)(=O)=O)c(-c3cnc(=O)n(-c4ccc5ccccc5c4)c3)cc12` [Compound 28, 2-(4-fluorophenyl)-N-methyl-6-(N-methylmethylsulfonamido)-5-(1-(naphthalen-2-yl)-2-oxo-1,2-dihydropyrimidin-5-yl)benzofuran-3-carboxamide], the IC50 stood at 116 nM with HCV replicon genotype 1a and 18 nM with HCV replicon genotype 1b.

As to `CNC(=O)c1c(-c2ccc(F)cc2)oc2cc(N(C)S(C)(=O)=O)c(-c3ccc(=O)n(-c4ccc(F)cc4)c3)cc12` [Compound 29, 2-(4-fluorophenyl)-5-(1-(4-fluorophenyl)-6-oxo-1,6-dihydropyridin-3-yl)-N-methyl-6-(N-methylmethylsulfonamido) benzofuran-3-carboxamide], the IC50 in the assay on HCV replicon genotype 1a worked out at 110 nM; with HCV replicon genotype 1b, 31.8 nM.

With `CNC(=O)c1c(-c2ccc(F)cc2)oc2cc(N(C)S(C)(=O)=O)c(-c3cc4n(c(=O)c3)CCn3c-4cc4c(F)cccc43)cc12` [Compound 30, 5-(12-fluoro-4-oxo-6,7-dihydro-4H-pyrido[2′,1′:3,4]pyrazino[1,2-a]indol-2-yl)-2-(4-fluorophenyl)-N-methyl-6-(N-methylmethylsulfonamido)benzofuran-3-carboxamide], the IC50 came out at 3.52 nM with HCV replicon genotype 1a and 19 nM with HCV replicon genotype 1b.

As to `CNC(=O)c1c(-c2ccc(F)cc2)oc2cc(N(C)S(C)(=O)=O)c(-c3cc4n(c(=O)n3)CCn3c-4cc4c(F)cccc43)cc12` [Compound 31, 5-(12-fluoro-4-oxo-6,7-dihydro-4H-pyrimido[6′,1′:3,4]pyrazino[1,2-a]indol-2-yl)-2-(4-fluorophenyl)-N-methyl-6-(N-methylmethylsulfonamido)benzofuran-3-carboxamide], the values for the IC50 with HCV replicon genotype 1a and in the assay with HCV replicon genotype 1b were 3.48 nM and 6.95 nM, respectively.
